Experiments:
[1] = Apparent (surface) pKa of the LNP formulation (TNS assay); format: physicochemical; settings: for Apparent pKa: Table 3G
Method in brief: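 LNP (0.04 mg/mL mRNA) mixed with TNS reagent in 21 buffers spanning about pH 3-12, in triplicate; fluorescence plotted against pH as sigmoidal curve. Apparent pKa taken as […] curve inflection point; validated in 1× PBS and 20 mM Tris w/8% sucrose.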

[2] = Encapsulation efficiency of RNA (QUANT-IT RIBOGREEN RNA assay); format: physicochemical
Method in brief: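 RiboGreen fluorescence (ex ~480, em ~520 nm) compared between intact samples and Triton X-100-lysed samples after 15 min at 37 °C in TE buffer, pH 7.5. Percent free RNA is the blank-corrected intact/disrupted ratio.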

luciferase (Luc) mRNA = experiment: Luc expression, whole body bioluminescence after intravenous administration to mice; format: in vivo; settings: for Fold increase in total body Luc Flux relative to MC3 at 6 h: Table 3A; for Total Flux 3 hours / Total Flux 6 hours / Total Flux 24 hours / i.v. Lipid/MC3 0.5 mpk, Luc, 6 h: i.v.; for Total Flux 3 hours / Total Flux 6 hours / Total Flux 24 hours: 0.5 mg/kg, Luc mRNA; for i.v. Lipid/MC3 0.5 mpk, Luc, 6 h: Table 3B; for Novel lipid/MC3 expression ratio, 6 hr. time point, i.v.: relative to MC3 formulation
Method in brief: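 Luc mRNA nanoparticle formulations given intravenously to mice (n=6) at 0.5 mg/kg; whole-body bioluminescence imaged at 3, 6 and 24 h. CD-1 mice received IP D-luciferin (200 μL of 15 mg/mL) 15 min before imaging; total flux quantified by region of interest.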

[3] = Particle size and polydispersity index of nanoparticle compositions (Zetasizer Nano ZS); format: physicochemical
Method in brief: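 Particle size and PDI were measured on a Zetasizer Nano ZS with the nanoparticle compositions dispersed in 1×PBS.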

IL-6, IP-10 = experiment: Cytokine induction in mice upon intravenous administration; format: in vivo; parameters: Cytokine induction IL-6 / Cytokine induction IP-10: unit not given here; settings: 0.5 mpk, 6 hours
Method in brief: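 Mice dosed intravenously with nanoparticle compositions at 0.5 mpk; serum cytokine concentrations (IL-6, IP-10) measured at 6 hours. MC3 formulation and PBS controls run alongside.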

[4] = lipid nanoparticle, ±SD within one assay run (Table 37)
[5] = Table 1B, formulated with hEPO mRNA
[6] = Table 1D, for subcutaneous administration, # formulated with hEPO mRNA
[7] = lipid:DSPC:Chol:PEG-DMG (50:10:38.5:1.5), hEPO mRNA
[8] = nanoparticle composition with hEPO mRNA (Table 30)
[9] = nanoparticle composition with mRNA encoding anti-HA antibody (Table 33)
[10] = nanoparticle of rat tolerability study (Table 43)
[11] = Table 1A, lipid:DSPC:cholesterol:PEG-DMG 50:10:38.5:1.5 mol %
[12] = Table 1E, compositions for subcutaneous administration
[13] = Table 1C, compositions for subcutaneous administration

## CCCCCCCCCOC(=O)CCCCCCCN(CCO)CCCCCCCC(=O)OC(CCCCCCCC)CCCCCCCC [Compound 18, Heptadecan-9-yl 8-((2-hydroxyethyl)(8-(nonyloxy)-8-oxooctyl)amino)octanoate]
[1]; Table 1A
  pKa: 6.56
[1]; Table 6
  pKa: 6.56
[1]; [4]
  pKa: 6.56 ± 0.13
[2]; Table 1A
  EE (%): 95.9%
[2]; [5]
  EE (%): 96.95%
[2]; [6]
  % EE: 96.2%
[2]; [4]
  % Encapsulation: 97.5 ± 0.2%
[2]; [7]
  EE: 97.34%
[2]; [8]
  EE: 85.56%
[2]; [9]
  EE: 79.3%
[2]; [10]
  % EE: 91%
Luciferase (Luc) mRNA; i.v. administration
  Fold increase in total body Luc Flux relative to MC3 at 6 h: 3.22
Luciferase (Luc) mRNA; intravenous administration, in words
  fold increase in Luc expression over MC3 formulations: highest fold increase
Luciferase (Luc) mRNA; intravenous, 0.5 mpk
  Fold increase in Luc expression relative to MC3, Intravenous (0.5 mpk dose): 3.23
Luciferase (Luc) mRNA; mice
  Total Flux 3 hours: 1.71E+10
  Total Flux 6 hours: 2.13E+10
  Total Flux 24 hours: 2.51E+09
Luciferase (Luc) mRNA; mice, intravenous, 0.5 mg/kg (mRNA dose)
  luciferase activity relative to MC3 LNP control: 3 fold
Luciferase (Luc) mRNA; mice, intravenous, 6 h
  Average total flux (6 h, ffluc): 2.13 × 10^10
  Fold increase in average total flux relative to MC3: 3.23
[3]; Table 1A
  PDI: 018
[3]; [11]
  Size (nm): 87.9 nm
[3]; [5]
  PDI: 0.14
  Size (nm): 73.7 nm
[3]; [6]
  PDI: 0.11
  Size (nm): 75.0 nm
[3]; [4]
  PDI (Polydispersity index): 0.04 ± 0.06
[3]; [7]
  PDI: 0.095
[3]; [8]
  PDI: 0.230
[3]; [9]
  Diameter: 76.8 nm
  PDI: 0.16
[3]; [10]
  Diameter: 80 nm
  PDI: 0.19
IL-6, IP-10; i.v., in words
  IP-10 induction: lowest
IL-6, IP-10; intravenous
  Cytokine induction IL-6: 78.76
  Cytokine induction IP-10: 139.92

## CCCCCCCCCOC(=O)CCCCCCCN(CCCCCCCC(=O)OC(CCCCCCCC)CCCCCCCC)CCCNC(C)=O [Compound 108, Heptadecan-9-yl 8-((3-acetamidopropyl)(8-(nonyloxy)-8-oxooctyl)amino)octanoate]
[1]; Table 1A
  pKa: 7.17
[2]; Table 1A
  EE (%): 96%
[2]; [5]
  EE (%): 95.38%
[2]; [12]
  % EE: 96%
Luciferase (Luc) mRNA; 0.5 mpk, 6 h
  i.v. Lipid/MC3 0.5 mpk, Luc, 6 h: 0.4
Luciferase (Luc) mRNA; mice
  Total Flux 3 hours: 5.04E+09
  Total Flux 6 hours: 5.53E+09
  Total Flux 24 hours: 1.50E+08
[3]; Table 1A
  PDI: 0.14
[3]; [11]
  Size (nm): 119 nm
[3]; [5]
  PDI: 0.22
  Size (nm): 89.6 nm
[3]; [12]
  PDI: 0.15
  Size (nm): 96.1 nm

## CCCCCCCCCOC(=O)CCCCCCCN(CCCCCCCC(=O)OC(CCCCCCCC)CCCCCCCC)CCCNC(=O)N(C)C [Compound 110, Heptadecan-9-yl 8-((3-(3,3-dimethylureido)propyl)(8-(nonyloxy)-8-oxooctyl)amino)octanoate]
[1]; Table 1A
  pKa: 8.03
[1]
  Apparent pKa: 8.03
[2]; Table 1A
  EE (%): 91.9%
[2]; [5]
  EE (%): 92.39%
[2]; [13]
  % EE: 91.9%
Luciferase (Luc) mRNA; mice
  Total Flux 3 hours: 1.89E+09
  Total Flux 6 hours: 2.57E+09
  Total Flux 24 hours: 1.11E+08
[3]; Table 1A
  PDI: 0.21
[3]; [11]
  Size (nm): 91.5 nm
[3]; [5]
  PDI: 0.24
  Size (nm): 73.3 nm
[3]; [13]
  PDI: 0.21
  Size (nm): 91.5 nm

## CCCCCCCCCOC(=O)CCCCCCCN(CCCCCCCC(=O)OC(CCCCCCCC)CCCCCCCC)CCCNC(=S)NC [Compound 113, Heptadecan-9-yl 8-((3-(3-methylthioureido)propyl)(8-(nonyloxy)-8-oxooctyl)amino)octanoate]
[1]; Table 1A
  pKa: 6.93
[2]; Table 1A
  EE (%): 96.92%
[2]; [13]
  % EE: 99.6%
Luciferase (Luc) mRNA; mice
  Total Flux 3 hours: 5.16E+09
  Total Flux 6 hours: 8.09E+09
  Total Flux 24 hours: 1.30E+08
[3]; Table 1A
  PDI: 0.13
[3]; [11]
  Size (nm): 86.8 nm
[3]; [13]
  PDI: 0.14
  Size (nm): 83.9 nm

## CCCCCCCCCOC(=O)CCCCCCCN(CCCCCCCC(=O)OC(CCCCCCCC)CCCCCCCC)CCCNC(=O)NC [Compound 112, Heptadecan-9-yl 8-((3-(3-methylureido)propyl)(8-(nonyloxy)-8-oxooctyl)amino)octanoate]
[1]; Table 1A
  pKa: 7.78
[1]
  Apparent pKa: 7.78
[2]; Table 1A
  EE (%): 99.0%
[2]; [5]
  EE (%): 96.40%
[2]; [13]
  % EE: 99.0%
Luciferase (Luc) mRNA; mice
  Total Flux 3 hours: 9.69E+08
  Total Flux 6 hours: 1.04E+09
  Total Flux 24 hours: 2.75E+07
[3]; Table 1A
  PDI: 0.22
[3]; [11]
  Size (nm): 83.7 nm
[3]; [5]
  PDI: 0.21
  Size (nm): 60.6 nm
[3]; [13]
  PDI: 0.22
  Size (nm): 83.7 nm

## CCCCCCCCC(CC)OC(=O)CCCCCN(CCO)CCCCCCCC(=O)OC(CCCCCCCC)CCCCCCCC (stereo not shown) [Compound 75, Heptadecan-9-yl 8-((2-hydroxyethyl)(6-oxo-6-(undecan-3-yloxy)hexyl)amino)octanoate]
[1]; Table 1A
  pKa: 6.67
[2]; Table 1A
  EE (%): 92.3%
[2]; [13]
  % EE: 94.9%
Luciferase (Luc) mRNA; luciferase, intravenous, relative to MC3, Table 3G
  Novel lipid/MC3 ratio, 6 hr. timepoint, i.v.: 3.29
Luciferase (Luc) mRNA; luciferase, intravenous
  Novel lipid/MC3 expression ratio, 6 hr. time point, i.v.: 3.29
Luciferase (Luc) mRNA; mice
  Total Flux 3 hours: 3.51E+10
  Total Flux 6 hours: 8.80E+10
  Total Flux 24 hours: 2.13E+09
[3]; Table 1A
  PDI: 0.17
[3]; [11]
  Size (nm): 92.1 nm
[3]; [13]
  PDI: 0.13
  Size (nm): 88.6 nm

## CCCCCCCCCOC(=O)CCCCCCCN(CCCCCCCC(=O)OC(CCCCCCCC)CCCCCCCC)CCCNS(C)(=O)=O [Compound 109, Heptadecan-9-yl 8-((3-(methylsulfonamido)propyl)(8-(nonyloxy)-8-oxooctyl)amino)octanoate]
[1]; Table 1A
  pKa: 6.78
[2]; Table 1A
  EE (%): 98.6%
[2]; [5]
  EE (%): 98.29%
[2]; [12]
  % EE: 98%
Luciferase (Luc) mRNA; 0.5 mpk, 6 h
  i.v. Lipid/MC3 0.5 mpk, Luc, 6 h: 0.3
Luciferase (Luc) mRNA; mice
  Total Flux 3 hours: 3.82E+09
  Total Flux 6 hours: 4.88E+09
  Total Flux 24 hours: 8.06E+07
[3]; Table 1A
  PDI: 0.13
[3]; [11]
  Size (nm): 81.1 nm
[3]; [5]
  PDI: 0.099
  Size (nm): 75 nm
[3]; [12]
  PDI: 0.10
  Size (nm): 67.0 nm

## CCCCCCCCC(CC)OC(=O)CCCCCCCN(CCO)CCCCCCCC(=O)OC(CCCCCCCC)CCCCCCCC (stereo not shown) [Compound 49, heptadecan-9-yl 8-((2-hydroxyethyl)(8-oxo-8-(undecan-3-yloxy)octyl)amino)octanoate]
[1]; Table 1A
  pKa: 6.52
[2]; Table 1A
  EE (%): 89.52%
[2]; [6]
  % EE: 96.2%
Luciferase (Luc) mRNA; i.v. administration
  Fold increase in total body Luc Flux relative to MC3 at 6 h: 9.81
Luciferase (Luc) mRNA; i.v. administration, in words
  flux measured at 6 h relative to the MC3 formulation: ten times higher
Luciferase (Luc) mRNA; luciferase, intravenous
  Novel lipid/MC3 expression ratio, 6 hr. time point, i.v.: 9.81
Luciferase (Luc) mRNA; mice
  Total Flux 3 hours: 4.48E+10
  Total Flux 6 hours: 1.08E+11
  Total Flux 24 hours: 1.24E+09
[3]; Table 1A
  PDI: 0.14
[3]; [11]
  Size (nm): 88 nm
[3]; [6]
  PDI: 0.09
  Size (nm): 74.0 nm

Reference: patent US12263248B2, “Compounds and compositions for intracellular delivery of therapeutic agents” (ModernaTX, Inc., priority 2018, dated 2025)
